{
  "source": "patent US7728132B2",
  "about": "“Compositions for stabilizing chlorinated water to sunlight decomposition, and methods of preparation thereof” (Enviro Tech Chemical Services, Inc., priority 2007, dated 2010)",
  "key": {"[1]": {"conditions": "as reported for prior-art products; cited from earlier work"}, "[2]": {"conditions": "granules in pool water; cited from earlier work"}, "[3]": {"assay": "Dispensing and dissolution of product in swimming pool", "format": "physicochemical", "conditions": "5.85 lb dry solid in 20,000 gallon pool, recirculation pump running", "experimental": "The gallon jugs of Examples 2 and 4 were taken to a residential swimming pool of 20,000 gallons estimated volume. The water temperature was 76° F. The sample of Example 2 was mildly shaken and then using a single motion, poured into the 8 foot deep end of the pool near the return pipe from the pump where the turbulence was high. […] Next the gallon jug of Example 4 was emptied into the pool in the same vicinity and same manner. […] The jug was rinsed clean with two aliquots of pool water.\nCyanuric acid wetcake (1405 lb) containing 66% solids is introduced to a 50 cubic foot stainless steel ribbon blender powered by dual 15 HP motors. Soft water (43.9 lb) is added while mixing in the blender. With further blending, solid sodium hydroxide microbeads (288.3 lb) are introduced over a three-minute period. The mixture becomes very hot as evidenced by the large amount of steam that escapes the reaction mixture into the atmosphere. The outside skin of the ribbon blender becomes too hot to touch and a temperature of 130° F. is measured with a digital infrared thermometer. […]\nA one-gallon jug of Instant Pool Water Conditioner (Natural Chemistry Inc. of Norwalk, Conn.) was purchased from a local pool store. […] Using a pool brush, the undissolved material was readily dispersed and dissolved with a sweeping action. […]"}},
  "data": [
    {"compound": "O=c1[n-]c(=O)[nH]c(=O)[nH]1.[Na+]", "note": "[monosodium cyanurate]", "values": [
      {"measurement": "pH", "setting": "[1]", "result": "neutral"}
    ]},
    {"compound": "O=c1[nH]c(=O)[nH]c(=O)[nH]1", "note": "[cyanuric acid]", "values": [
      {"measurement": "time to dissolve", "setting": "[2]", "result": "several days"}
    ]},
    {"compound": "O=c1[n-]c(=O)[nH]c(=O)[nH]1.[Na+]", "note": "[Prospective Example 8, monosodium cyanurate]", "values": [
      {"measurement": "time until all is dissolved", "setting": "[3]", "result": "≤ 30", "unit": "min"}
    ]}
  ]
}
